ChEMBL document CHEMBL3603758, “Geraniin inhibits TGF-β1-induced epithelial-mesenchymal transition and suppresses A549 lung cancer migration, invasion and anoikis resistance” (2015)
Calls of active or inactive are those of the source. The calls are words filed in the database; no cut-off is given here.

Key:
A549 [1] = assay: Inhibition of TGFbeta1-induced epithelial-mesenchymal transition in human A549 cells assessed as suppression of mesenchymal phenotype at 15 and 20 uM pre-treated for 2 hrs before TGFbeta1 stimulation for 48 hrs; type: functional, cell-based
A549 [2] = assay: Inhibition of TGFbeta1-induced cell migration of human A549 cells at 15 and 20 uM incubated for 48 hrs by wound healing assay; type: functional, cell-based
A549 [3] = assay: Inhibition of TGFbeta1-induced increase in N-cadherin expression in human A549 cells at 15 and 20 uM pre-treated for 2 hrs before TGFbeta1 stimulation for 48 hrs by Western blot method; type: functional, cell-based
A549 [4] = assay: Antiproliferative activity against human A549 cells assessed as inhibition of cell growth at 30 uM incubated for 48 hrs by CCK8 assay; type: functional, cell-based
A549 [5] = assay: Inhibition of TGFbeta1-induced anoikis resistance in human A549 cells grown on poly-HEMA-coated tissue culture plates assessed reduction in PARP cleavage at 15 and 20 uM pre-treated for 2 hrs before TGFbeta1 stimulation for 48 hrs by Western blot method; type: functional, cell-based
A549 [6] = assay: Inhibition of TGFbeta1-induced reduction in E-cadherin expression in human A549 cells at 15 and 20 uM pre-treated for 2 hrs before TGFbeta1 stimulation for 48 hrs by Western blot method; type: functional, cell-based
A549 [7] = assay: Inhibition of TGFbeta1-induced increase in vimentin expression in human A549 cells at 15 and 20 uM pre-treated for 2 hrs before TGFbeta1 stimulation for 48 hrs by Western blot method; type: functional, cell-based
A549 [8] = assay: Antiproliferative activity against human A549 cells assessed as cell survival rate at 2.5 uM incubated for 48 hrs by CCK8 assay; type: functional; conditions: A549, 48 h, read-out: Survival
A549 [9] = assay: Inhibition of TGFbeta1-induced anoikis resistance in human A549 cells grown on poly-HEMA-coated tissue culture plates at 15 and 20 uM pre-treated for 2 hrs before TGFbeta1 stimulation for 48 hrs; type: functional, cell-based
A549 [10] = assay: Antiproliferative activity against human A549 cells assessed as cell survival rate at 10 uM incubated for 48 hrs by CCK8 assay; type: functional; conditions: A549, 48 h, read-out: Survival
A549 [11] = assay: Inhibition of TGFbeta1-induced anoikis resistance in human A549 cells grown on poly-HEMA-coated tissue culture plates assessed reduction in cell proliferation at 15 and 20 uM pre-treated for 2 hrs before TGFbeta1 stimulation for 48 hrs by SRB assay; type: functional, cell-based
A549 [12] = assay: Inhibition of TGFbeta1-induced increase in Snail protein expression in human A549 cells at 15 and 20 uM pre-treated for 2 hrs before TGFbeta1 stimulation for 48 hrs by Western blot method; type: functional, cell-based
A549 [13] = assay: Antiproliferative activity against human A549 cells assessed as cell survival rate at 20 uM incubated for 48 hrs by CCK8 assay; type: functional; conditions: A549, 48 h, read-out: Survival
A549 [14] = assay: Antiproliferative activity against human A549 cells assessed as effect on cell proliferation at =< 30 uM incubated for 24 hrs by CCK8 assay; type: functional, cell-based
[15] = target: Mothers against decapentaplegic homolog 2 (Homo sapiens) (UniProt Q15796); assay: Inhibition of TGFbeta1-induced Smad2 phosphorylation in human A549 cells at 15 and 20 uM pre-treated for 2 hrs before TGFbeta1 stimulation for 48 hrs by Western blot method; type: cell-based
A549 [16] = assay: Inhibition of TGFbeta1-induced reduction in E-cadherin expression in human A549 cells assessed as suppresion of mesenchymal phenotype at 15 and 20 uM pre-treated for 2 hrs before TGFbeta1 stimulation for 48 hrs by Western blot method; type: functional, cell-based
A549 [17] = assay: Inhibition of TGFbeta1-induced increase in Snail gene expression in human A549 cells at 15 and 20 uM pre-treated for 2 hrs before TGFbeta1 stimulation for 48 hrs by qRT-PCR method; type: functional, cell-based
A549 [18] = assay: Inhibition of TGFbeta1-induced cell invasion of human A549 cells at 15 and 20 uM incubated for 48 hrs by matrigel cell invasion assay; type: functional, cell-based
A549 [19] = assay: Antiproliferative activity against human A549 cells assessed as cell survival rate at 15 uM incubated for 48 hrs by CCK8 assay; type: functional; conditions: A549, 48 h, read-out: Survival
A549 [20] = assay: Antiproliferative activity against human A549 cells assessed as cell survival rate at 5 uM incubated for 48 hrs by CCK8 assay; type: functional; conditions: A549, 48 h, read-out: Survival

Chain of Mothers against decapentaplegic homolog 2 (Homo sapiens) (Q15796 whole entry): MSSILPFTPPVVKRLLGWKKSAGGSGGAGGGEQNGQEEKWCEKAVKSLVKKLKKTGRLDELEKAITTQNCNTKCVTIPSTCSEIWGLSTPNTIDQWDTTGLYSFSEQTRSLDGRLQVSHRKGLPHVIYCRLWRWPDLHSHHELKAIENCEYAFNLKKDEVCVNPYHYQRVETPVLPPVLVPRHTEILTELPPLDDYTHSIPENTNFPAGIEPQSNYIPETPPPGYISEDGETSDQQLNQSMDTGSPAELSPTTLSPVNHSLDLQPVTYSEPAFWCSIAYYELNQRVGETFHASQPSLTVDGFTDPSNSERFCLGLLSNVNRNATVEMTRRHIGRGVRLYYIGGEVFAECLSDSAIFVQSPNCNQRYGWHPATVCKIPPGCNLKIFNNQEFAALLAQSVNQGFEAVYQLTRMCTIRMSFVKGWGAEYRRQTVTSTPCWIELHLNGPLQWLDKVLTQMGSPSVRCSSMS

O=C1O[C@H]2[C@@H]3OC(=O)c4cc(O)c(O)c(O)c4-c4c(cc(O)c(O)c4O)C(=O)OC[C@H]2O[C@@H](OC(=O)c2cc(O)c(O)c(O)c2)[C@@H]3OC(=O)c2cc(O)c(O)c3c2[C@@H]2C1=CC(=O)[C@](O)(O3)C2(O)O [GERANIIN]
inhibition (A549 [1]): Active
inhibition (A549 [2]): Dose-dependent effect
inhibition (A549 [3]): Active
growth inhibition (GI) (A549 [4]): Active
inhibition (A549 [5]): Active
inhibition (A549 [6]): Active
inhibition (A549 [7]): Active
viability at 2.5 µM (A549 [8]): > 90%
inhibition (A549 [9]): Active
viability at 10 µM (A549 [10]): > 90%
inhibition (A549 [11]): Dose-dependent effect
inhibition (A549 [12]): Dose-dependent effect
viability at 20 µM (A549 [13]): > 90%
Activity (A549 [14]): inactive
inhibition [15]: Active
inhibition (A549 [16]): Active
inhibition (A549 [17]): Dose-dependent effect
inhibition (A549 [18]): Active
viability at 15 µM (A549 [19]): > 90%
viability at 5 µM (A549 [20]): > 90%
